From PMC9705314, “Characterization of a new potent and long-lasting single chain peptide agonist of RXFP1 in cells and in vivo translational models” (Scientific Reports, 2022) come the findings set out here.

*1 amine or outer side, *2 acyl side, *3 side chain or, on linkers, in order; H or OH if unused. Where a SMILES comes first, the peptide text is derived from it. Side-chain parts run from the residue outwards. [ ]: non-standard residue; d: D form. The star is where a group is joined. γGlu = O=C(O)[C@H](CCC(=O)[*:2])N[*:1]; Stearoyl = CCCCCCCCCCCCCCCCCC(=O)*; Nle = CCCC[C@H](N)C(=O)O; AEEA = NCCOCCOCC(=O)O; Aib = CC(C)(N)C(=O)O

For one assay, the target named is T1, rat RXFP1 (Rattus norvegicus, UniProt Q6R6I6).
T1 construct: expressed in transfected cells
T1 sequence (Q6R6I6 1-758): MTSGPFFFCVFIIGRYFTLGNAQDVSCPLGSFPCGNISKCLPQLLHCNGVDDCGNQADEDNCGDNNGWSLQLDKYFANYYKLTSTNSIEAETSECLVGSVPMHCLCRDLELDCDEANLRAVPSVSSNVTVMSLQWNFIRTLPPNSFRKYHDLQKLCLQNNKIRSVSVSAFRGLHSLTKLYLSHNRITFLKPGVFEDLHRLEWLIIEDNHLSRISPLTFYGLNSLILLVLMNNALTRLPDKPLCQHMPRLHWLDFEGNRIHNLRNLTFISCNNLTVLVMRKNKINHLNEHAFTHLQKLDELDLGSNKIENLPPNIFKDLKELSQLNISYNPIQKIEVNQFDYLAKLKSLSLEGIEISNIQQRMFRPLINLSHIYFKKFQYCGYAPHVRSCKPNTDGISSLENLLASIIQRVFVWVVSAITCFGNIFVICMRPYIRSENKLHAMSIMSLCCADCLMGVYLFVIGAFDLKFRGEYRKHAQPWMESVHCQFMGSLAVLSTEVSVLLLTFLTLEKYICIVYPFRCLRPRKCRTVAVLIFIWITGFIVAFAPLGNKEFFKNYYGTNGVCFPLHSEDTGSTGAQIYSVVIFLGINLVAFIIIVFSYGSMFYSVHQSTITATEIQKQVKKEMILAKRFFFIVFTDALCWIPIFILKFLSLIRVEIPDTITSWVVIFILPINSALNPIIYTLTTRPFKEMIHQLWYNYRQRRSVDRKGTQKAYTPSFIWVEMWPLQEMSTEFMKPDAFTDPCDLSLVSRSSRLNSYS
Kind of assay: cAMP HTRF assay in HEK_ratRXFP1 cells. Type of assay: cell-based. A general note: In TR-FRET formats the signal depends on donor and acceptor labels being close together.

The target in assay [1] is T2, RXFP1 (Homo sapiens, UniProt Q9HBX9).
T2 sequence (Q9HBX9 1-757): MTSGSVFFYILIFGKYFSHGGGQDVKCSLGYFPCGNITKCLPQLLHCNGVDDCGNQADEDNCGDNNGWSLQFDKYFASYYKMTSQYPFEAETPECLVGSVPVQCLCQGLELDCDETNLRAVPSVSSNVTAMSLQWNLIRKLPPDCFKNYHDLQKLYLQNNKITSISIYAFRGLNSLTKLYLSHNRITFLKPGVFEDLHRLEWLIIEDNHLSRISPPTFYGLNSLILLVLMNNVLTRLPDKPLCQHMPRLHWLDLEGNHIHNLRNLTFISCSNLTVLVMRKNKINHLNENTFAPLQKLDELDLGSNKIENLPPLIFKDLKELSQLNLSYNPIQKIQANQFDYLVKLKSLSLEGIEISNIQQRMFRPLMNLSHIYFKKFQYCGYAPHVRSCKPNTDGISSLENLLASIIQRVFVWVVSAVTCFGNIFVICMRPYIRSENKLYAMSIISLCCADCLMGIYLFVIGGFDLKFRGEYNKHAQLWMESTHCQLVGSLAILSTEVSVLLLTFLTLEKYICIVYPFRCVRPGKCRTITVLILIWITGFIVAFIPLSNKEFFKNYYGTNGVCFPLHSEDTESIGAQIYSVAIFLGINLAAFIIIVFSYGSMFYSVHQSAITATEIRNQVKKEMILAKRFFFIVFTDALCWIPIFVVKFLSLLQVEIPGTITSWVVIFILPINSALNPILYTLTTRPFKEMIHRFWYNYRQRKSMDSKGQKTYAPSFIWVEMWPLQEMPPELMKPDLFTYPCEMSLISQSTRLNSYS
Kind of assay: cAMP HTRF assay in EA.hy926_hRXFP1 cells. The arrangement: expressed in transfected cells; host or cells: EA.hy926 (ATCC CRL-2922), lentiviral transduction, puromycin selection. Type of assay: cell-based.
Protocol: EA.hy926 or EA.hy926_RXFP1 were grown in complete growth medium (DMEM + 10% Fetal Calf serum + 1% Penicillin/Streptomycin + puromycin 0.5 µg/mL) at 37 °C and 5% CO2 in a humidified incubator. When cells reached 80–90% confluency, cells were detached from plastic using Trypsin–EDTA and were plated in 96 or 384-well plates according to the test.
(§1) Cells were plated in low-volume 384-well plates at a density of 4000 cells/well for EA.hy926_RXFP1 cells or 8000 cells/well for OVCAR5 cells in a final volume of 5 µL. The plates were briefly centrifuged at 800 rpm to allow the cell suspension to move to the bottom of the wells and then incubated for 24 h at 37 °C in 5% CO2. 5µL of the diluted compounds were then transferred in 384-well plate containing 5µL of cells in test medium. The assay plates were incubated for 30 min at 37 °C under 5% CO2. After 30 min the reaction was stopped by addition of HTRF revelation reagents with a multidrop dispenser. […]
(§2) After overnight incubation at room temperature, HTRF signal was read at 620 and 665 nm on Phera Star (BMG LAbtech) plate reader. The HTRF signal was calculated as follows: ratio HTRF = [(signal 665 nm)/(signal 620 nm)] × 10^4. […]
(§3) Relative EC50s (EC50rel) were determined with SAS procedure NLIN in SAS system release 9.4 under Unix via Biost@t-SPEED-LTS v2.4 internal software using the 4-parameter logistic model[47]. […]

Assay [2] deals with T2, RXFP1. The assay can be described thus: cAMP HTRF assay in OVCAR5 cells (endogenous RXFP1). It is filed as cell-based. The arrangement: they express significant endogenous levels of RXFP1 (determined by RT-PCR); endogenous in cells; host or cells: OVCAR5 (from NIH, NCI-60 panel).
Protocol: OVCAR5 cells were grown in complete medium (RPMI 1640 + 10% Fetal Calf serum + 1% Penicillin/Streptomycin) at 37 °C and 5% CO2 in a humidified incubator. OVCAR5 cells were detached with accutase for 5 min and were plated in 384-well plates at a density of 8000 cells/well.
as §1, §2, §3
The next assay deals with wild type EA.hy926 cells. The assay can be described thus: xCELLigence real time impedance in wild type EA.hy926 cells. Type of assay: cell-based, human. As to the method: Cell impedance assays in both wild type EA.hy926 and EA.hy926_RXFP1 cell lines were performed using a MP RCTA xCELLigence Analyzer (ACEA Biosciences) on E-Plates. 20,000 cells/well were seeded in E-plates in 200 µL of growth medium and left to settle for 30 min at room temperature. Plates were then placed into the xCELLigence RTCA MP Instrument under 5% CO2 at 37 °C and impedance was continuously measured every 15 min overnight. The next day, a 4-h serum starvation was performed using the same medium but with 0.1% FCS (impedance measurement every 5 min).
Data analysis was performed using RTCA2.0 software according to ACEA recommendations. Raw impedance expressed as cell index was normalized for each well by dividing individual Cell Index values by baseline Cell index values obtained 5 min before peptide treatment in order to obtain Normalized Cell Index (NCI): mean NCI from 4 replicates for each condition are presented.

Broadly, the Emax is the maximal effect, on the per cent scale that the assay sets. Consider `CCCCCCCCCCCCCCCCCC(=O)N[C@@H](CCC(=O)N[C@@H](CCC(=O)N[C@@H](CCC(=O)NCCOCCOCC(=O)NCCOCCOCC(=O)NCCOCCOCC(=O)NCCCC[C@H](NC(=O)[C@H](CCCCNC(C)=O)NC(=O)[C@H](CCCCN)NC(=O)[C@H](CCCNC(=N)N)NC(=O)C(C)(C)NC(=O)[C@H](CO)NC(=O)[C@H](Cc1c[nH]c2ccccc12)NC(=O)[C@@H](NC(=O)[C@H](CO)NC(=O)[C@H](CCCC)NC(=O)CNC(=O)[C@H](CCC(=O)O)NC(=O)C(C)(C)NC(=O)C(C)(C)NC(=O)[C@@H](NC(=O)[C@H](CCCCNC(C)=O)NC(=O)[C@H](C)NC(=O)[C@H](CCCNC(=N)N)NC(=O)[C@@H](NC(=O)[C@H](CCCCN)NC(=O)[C@H](CCC(=O)O)NC(=O)[C@H](CCCNC(=N)N)NC(=O)CNC(=O)[C@H](CCC(=O)O)NC(=O)[C@H](CC(C)C)NC(C)=O)C(C)C)[C@@H](C)CC)[C@@H](C)O)C(N)=O)C(=O)O)C(=O)O)C(=O)O` [SA10SC-RLX] (Ac-LEGREKVRAK(Ac)I[Aib][Aib]EG[Nle]STWS[Aib]RKK(Ac)K([AEEA-AEEA-AEEA-γGlu-γGlu-γGlu-Stearoyl])-NH2), for which the Emax turned out to be 68.5 ± 2.8% at rat RXFP1 (read-out: Emax (%) ± SEM cAMP); 93.7 ± 1.1% on RXFP1 [1] (read-out: Emax (%) ± SEM cAMP); 84.1 ± 1.1% at RXFP1 [2] (OVCAR-5, read-out: Emax (%) ± SEM cAMP).

A word on the EC50: it is the concentration giving half of the maximal effect. Read a high EC50 as a need for much substance. Regarding relaxin, the “Emax (%) ± SEM cAMP” value came out at 95.6 ± 0.8% at rat RXFP1 (HEK_ratRXFP1 cells, % of 100 nM relaxin response, n = 6); 100.1 ± 0.7% at RXFP1 [1] (EA.hy926_hRXFP1 cells, % of 100 nM relaxin response, n = 5); 96.2 ± 0.8% at RXFP1 [2] (OVCAR5 cells, % of 100 nM relaxin response, n = 6). The same compound showed a 50% effective concentration (EC50) in the assay with rat RXFP1 (HEK_ratRXFP1 cells, geometric mean of relative EC50 with 95% CI, n = 6) of 1.4 nM. The impedance response result with wild type EA.hy926 cells is given as “Neither relaxin nor SA10SC-RLX induced a response”.
